What is called solubility is how much of the substance goes into solution per volume. For orientation: Cmax means the maximum level reached in the sampled fluid or tissue. One may read the Tmax as the time from dosing to the highest level.

A short description of data set [1]: Solubility tests in Miglyol 810. The following applies: Miglyol 810, magnetic stirring; amount and volume per drug as in the block.
Another data set in a line: physchem. The following applies: oil or lipid.
Data set [2] can be described thus: Single-dose pharmacokinetic study, artemether sublingual spray vs oral tablets. It is filed as in vivo, human. The settings on record: for λz elimination rate constant, Plasma Artemether / Cmax / Tmax / AUC(0-t) / Vd/F / half-life: n = 16, mean ± SD; for Cmax / Tmax / AUC(0-t) / Vd/F / half-life / bioavailability: male, human, plasma; for AUC(0-t): read-out: AUC0-12, Plasma Artemether; for Vd/F: read-out: V/F apparent volume of distribution, Plasma Artemether; for half-life: read-out: t1/2 elimination half-life, Plasma Artemether (converted); for bioavailability: other: sublingual, ± S.D. The method, then: Trials were carried out on healthy male adult human volunteers (16 subjects per cohort), and subject to normal ethical approval. Three single-dose regimes according to the present invention were studied, and compared to a regime using oral-dosed tablets, as follows: Spray formulations of artemether were prepared as detailed above, and administered, on a single occasion, to a group of volunteers by the sublingual route. […] Following administration of each dosage regime, blood samples were taken from the subjects, and plasma concentrations of artemether and its immediate metabolite dihydroartemesinin were determined, in order to compare bioavailability by the two routes.

Data set [3] can be described thus: Solubility enhancement by heat or essential oil (menthol) in Miglyol. It is filed as physicochemical. The settings on record: heat or menthol added (separate solutions).
A short description of data set [4]: Repeat-dose artemether sublingual spray study (avoidance of autoinduction). Type of data set: in vivo, human. The settings on record: 30 mg artemether sublingual spray single on days 1 and 5, twice daily on days 2, 3 and 4. The method, then:
A similar avoidance of autoinduction is expected with delivery by the transmucosal buccal or nasal route. In confidential trials, volunteers followed the following treatment: A single administration of 30 mg artemether sublingual spray 6 mg/actuation on days 1 and 5 following an overnight fast, and twice daily administrations of 30 mg artemether sublingual spray 3 mg/actuation on days 2, 3, and 4 following a morning or evening meal. Blood samples were collected for pharmacokinetic analysis at the following time points: Day 1: Predose, 0.25, 0.5, 0.75, 1, 1.5, 2, 2.5, 3, 4, 6, 8, and 12 h after dosing. Days 2, 3, and 4: pre morning dose and 0.5, 1, 2 and 4 h after morning dose and pre evening dose and 1 hour after evening dose. Day 5: Predose, 0.25, 0.5, 0.75, 1, 1.5, 2, 2.5, 3, 4, 6, 8, 12 h and 24 h after dosing.

Where [5] appears, read: 15 mg, T1: single sublingual 15 mg Artemether sublingual spray, 3 mg per actuation.
The mark [6] stands for this setting: 30 mg, T2: single sublingual 30 mg Artemether sublingual spray, 3 mg per actuation.
The mark [7] stands for this setting: 30 mg, T3: single sublingual 30 mg Artemether sublingual spray, 6 mg per actuation.
The mark [8] stands for this setting: po, 30 mg, T4: single oral 30 mg Artemether Tablets, 10 mg per Tablet.

In brackets after ≈: the same amount, converted by molar mass. Entries after “also recorded” stand apart in the source; their conditions may differ. Structures can show the parent of a compound that is named as a salt. Where two headings read alike, the source gives them in different places.

For `Oc1ccc2c3c1O[C@H]1[C@@H](O)CC[C@@]4(O)[C@@H](C2)N(CC2CCC2)CC[C@]314` [Nalbuphine HCl], the “solubility in Miglyol” value in data set [1] is “not soluble”.
The molecule `CCCNC(C)C(=O)Nc1ccccc1C` (stereo not drawn) [Prilocaine Base] yielded a solubility in the data set “physchem” of around 137 mg/mL (≈ 622 mM).
With `C=CCN1CC[C@]23c4c5ccc(O)c4O[C@H]2C(=O)CC[C@@]3(O)[C@H]1C5` [Naloxone], in data set [1], the “solubility in Miglyol” value is on record as “sparingly soluble”.
Regarding `CO[C@H]1O[C@@H]2O[C@@]3(C)CC[C@H]4[C@H](C)CC[C@@H]([C@H]1C)[C@@]24OO3` [Artemether], the “absorption (comparison of AUC0-12), sublingual spray vs oral tablet dosing” value in data set [2] (12 hours following the doses, preliminary results) was “significant and surprisingly higher absorption”. The “λz elimination rate constant, Plasma Artemether” value in data set [2] (T1: single sublingual 15 mg Artemether sublingual spray, 3 mg per actuation) amounted to 1.11 ± 0.40 h⁻¹; in data set [2] (T2: single sublingual 30 mg Artemether sublingual spray, 3 mg per actuation), 0.56 ± 0.20 h⁻¹; in data set [2] (T3: single sublingual 30 mg Artemether sublingual spray, 6 mg per actuation), 0.59 ± 0.25 h⁻¹; in data set [2] (T4: single oral 30 mg Artemether Tablets, 10 mg per Tablet), 0.31 ± 0.15 h⁻¹. For the same molecule, the highest concentration (Cmax) stood at 16.1 ± 8.69 ng/mL in data set [2] (setting [5]), 32.1 ± 16.4 ng/mL in data set [2] (setting [6]), 35.2 ± 23.9 ng/mL in data set [2] (setting [7]) and 10.1 ± 7.19 ng/mL in data set [2] (setting [8]). Also, the time to peak (Tmax) in data set [2] (setting [5]) was determined as 1.7 ± 0.68 h; in data set [2] (setting [6]), 1.73 ± 0.82 h; in data set [2] (setting [7]) it was 1.67 ± 0.77 h; in data set [2] (setting [8]), 1.02 ± 0.86 h. Also, the AUC(0-t) came out at 25.9 ± 13.9 ng·h/mL in data set [2] (setting [5]), 76.6 ± 43.1 ng·h/mL in data set [2] (setting [6]), 71.1 ± 41.1 ng·h/mL in data set [2] (setting [7]) and 34.6 ± 21 ng·h/mL in data set [2] (setting [8]). Moreover, the Vd/F is 680 ± 330 L in data set [2] (setting [5]), 1000 ± 550 L in data set [2] (setting [6]), 1010 ± 490 L in data set [2] (setting [7]) and 3900 ± 2900 L in data set [2] (setting [8]). The half-life in data set [2] (setting [5]) is 0.72 ± 0.3 h; in data set [2] (setting [6]), 1.39 ± 0.49 h; in data set [2] (setting [7]), 1.4 ± 0.59 h; in data set [2] (setting [8]), 3.44 ± 4.26 h. In addition, the bioavailability in data set [2] (15 mg, T1 (15 mg sublingual spray, 3 mg/actuation) vs T4 (30 mg oral tablets), read-out: F-value FT1-T4 (relative bioavailability of artemether)) was 167 ± 60%; in data set [2] (30 mg, T2 (30 mg sublingual spray, 3 mg/actuation) vs T4 (30 mg oral tablets), read-out: F-value FT2-T4 (relative bioavailability of artemether)), 224 ± 92%; in data set [2] (30 mg, T3 (30 mg sublingual spray, 6 mg/actuation) vs T4 (30 mg oral tablets), read-out: F-value FT3-T4 (relative bioavailability of artemether)), 209 ± 69%.
Take `CCCC1O[C@@H]2C[C@H]3[C@@H]4CCC5=CC(=O)C=C[C@]5(C)[C@H]4[C@@H](O)C[C@]3(C)[C@]2(C(=O)CO)O1` (stereo partly drawn) [Budesonide]: in data set [3], the “solubility in Miglyol with the addition of heat or menthol” value is given as “appeared to dissolve; also recorded: soluble with the addition of heat or menthol”.
Take `C[C@H]1[C@@H](O)O[C@@H]2O[C@@]3(C)CC[C@H]4[C@H](C)CC[C@@H]1[C@@]24OO3` [Dihydroartemesinin]: in data set [4], the “pharmacokinetic analysis of plasma dihydroartemesinin, day 1 vs day 5” value was “effectively identical response”.
Consider `O=C1CC[C@@]2(O)[C@H]3Cc4ccc(O)c5c4[C@@]2(CCN3CC2CC2)[C@H]1O5` [Naltrexone Base], for which the “solubility in Miglyol” value in data set [1] is listed as “sparingly soluble”. Besides, the “solubility in Miglyol with the addition of heat or menthol” value in data set [3] is “soluble with the addition of heat or menthol”.
`COc1cccc(C2(O)CCCCC2CN(C)C)c1` (stereo not drawn) [Tramadol HCl]: in data set [1], the “solubility in Miglyol” value is given as “insoluble”.

Source of the values: patent publication US20120058158A1, “Sublingual Pharmaceutical Composition Comprising a Neutral Oil” (priority 2009, published 2012).
